The record followed here is patent US20050130989A1, “N-arylheteroaromatic products compositions containing them and use thereof” (Aventis Pharma S. A., priority 2003, published 2005).

In one assay the target is T1, tubulin (Sus scrofa, UniProt P02550+P02554).
T1 construct: Tubulin is purified from pig brain according to published methods; from tissue; host or cells: pig brain
Nature of the assay: Evaluation of the inhibition of tubulin polymerization (turbidimetry). The class given is biochemical, pig. The note with it: tubulin 10 μm (1 mg/ml), 37° C., turbidity at 350 nm; concentration that inhibits the rate of polymerization by 50%; read-out: Inhibition of tubulin polymerization IC 50 (μm). The method in brief: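 Pig brain tubulin (>95% pure), 10 μm in MES pH 6.8/30% glycerol buffer plus 1 mM GTP and 6 mM MgCl2, with compound at 0.5–10 μm added before polymerization. Polymerization triggered by shift from 6° C to 37° C, followed by turbidity at 350 nm; IC50 is 50% inhibition of polymerization rate.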

A further assay deals with HCT116 cells. Nature of the assay: Inhibition of proliferation of the human colon tumor line HCT116 ([14C]-thymidine incorporation). To be noted: Homo sapiens, HCT-116, 48 h, 48 hours at 37° C., read-out: Inhibition of HCT116 proliferation IC 50 (μm). The class given is cell-based. The method in brief:
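HCT116 cells (5000/well) in DMEM with 10% fetal calf serum incubated 48 h at 37° C with [14C]-thymidine (0.1 μCi/well) and compound up to 10 μm (DMSO ≤0.5%). Incorporated radioactivity counted; IC50 is concentration cutting radioactivity by 50% versus untreated control.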
A general note: Uptake of a labelled nucleoside into DNA is a usual measure of proliferation.

Structures can show the parent of a compound that is named as a salt.

T1 sequence (P02550 whole entry): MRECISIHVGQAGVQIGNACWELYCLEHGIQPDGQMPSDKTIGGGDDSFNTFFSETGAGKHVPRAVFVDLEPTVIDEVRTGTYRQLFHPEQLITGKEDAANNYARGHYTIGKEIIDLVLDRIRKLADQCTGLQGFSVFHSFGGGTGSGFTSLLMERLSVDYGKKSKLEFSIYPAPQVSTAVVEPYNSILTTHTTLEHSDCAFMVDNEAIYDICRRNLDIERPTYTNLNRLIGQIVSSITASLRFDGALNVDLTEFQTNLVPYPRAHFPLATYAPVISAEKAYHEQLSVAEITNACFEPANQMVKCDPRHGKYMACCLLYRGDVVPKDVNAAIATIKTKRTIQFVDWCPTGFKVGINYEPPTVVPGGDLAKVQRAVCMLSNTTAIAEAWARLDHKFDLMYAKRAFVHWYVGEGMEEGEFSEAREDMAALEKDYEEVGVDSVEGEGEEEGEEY
T1 sequence (P02554 whole entry): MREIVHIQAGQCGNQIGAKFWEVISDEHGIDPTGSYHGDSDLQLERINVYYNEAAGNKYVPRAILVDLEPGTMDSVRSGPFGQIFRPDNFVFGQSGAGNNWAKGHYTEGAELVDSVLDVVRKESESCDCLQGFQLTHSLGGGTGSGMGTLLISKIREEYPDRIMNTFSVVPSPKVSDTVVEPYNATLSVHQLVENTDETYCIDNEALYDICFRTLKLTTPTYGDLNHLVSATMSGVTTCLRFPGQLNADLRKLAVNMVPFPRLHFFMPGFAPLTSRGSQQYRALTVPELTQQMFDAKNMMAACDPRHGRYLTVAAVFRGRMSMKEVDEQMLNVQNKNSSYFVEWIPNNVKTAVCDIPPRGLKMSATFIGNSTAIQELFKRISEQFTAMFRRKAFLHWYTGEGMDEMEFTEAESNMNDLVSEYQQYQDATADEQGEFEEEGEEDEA

With `Cc1cc(C(=O)N2CCN(c3cc(Cl)ccc3C)CC2)n(-c2cccc(F)c2)n1` [3/21], the IC50 at tubulin was determined as 1800 nM; in the assay on HCT116 cells, 469 nM.
As to `Cc1cc(C(=O)N2CCN(c3ccc(F)c(Cl)c3)CC2)n(-c2ccccc2)n1` [Example E72, [4-(3-Chloro-4-fluorophenyl)piperazin-1-yl](5-methyl-2-phenyl-2H-pyrazol-3-yl)methanone], the IC50 worked out at 1550 nM at tubulin and 6.6 nM in the assay on HCT116 cells.
On the same counts, the results for `Cc1cc(C(=O)N2CCN(c3ccc(C)c(C)c3)CC2)n(-c2ccccc2F)n1` [3/86] are 12500 nM and 385 nM.
On the same counts, the results for `COc1cccc(N2CCN(C(=O)c3cc(C)nn3-c3cccc(Cl)c3)CC2)c1` [3/25] are 1800 nM and 40 nM.
On the same counts, the results for `COc1cccc(N2CCN(C(=O)c3cc(C)nn3-c3cccc(OC)c3)CC2)c1` [3/82] are 1200 nM and 8.3 nM.
Consider `COc1cccc(-n2nc(C)cc2C(=O)N2CCN(c3cccc(C)c3)CC2)c1` [3/3], for which the results for the IC50 at tubulin and in the assay on HCT116 cells were 1800 nM and 87 nM, respectively.
On the same counts, the results for `COc1ccc(-n2nc(C)cc2C(=O)N2CCN(c3cccc(OC)c3)CC2)cc1` [3/105] are 4500 nM and 118 nM.
In the case of `Cc1cc(C(=O)N2CCN(c3cccc(Cl)c3Cl)CC2)n(-c2ccc(Cl)cc2)n1` [3/129], the IC50 at tubulin was less than 25000 nM; in the assay on HCT116 cells, 2560 nM.
Take `Cc1cc(C(=O)N2CCN(c3cccc(Cl)c3)CC2)n(-c2cccc(F)c2)n1` [3/18]: the IC50 turned out to be 2000 nM at tubulin and 28 nM in the assay on HCT116 cells.
For `COc1cc(OC)cc(N2CCN(C(=O)c3cc(/C=N/O)nn3-c3ccccc3)CC2)c1` [Example E94, 5-[4-(3,5-Dimethoxyphenyl)piperazine-1-carbonyl]-1-phenyl-1H-pyrazole-3-carboxaldehyde oxime E], in that order: 900 nM and 2 nM.
On the same counts, the results for `COc1ccccc1N1CCN(C(=O)c2cc(C)nn2-c2ccc(F)cc2)CC1` [3/102] are 13000 nM and 181 nM.
`COc1cc(OC)cc(N2CCN(C(=O)c3cc(N4CCC(O)C4)nn3-c3ccccc3)CC2)c1` (centres unmarked) [Example E106, [4-(3,5-Dimethoxyphenyl)piperazin-1-yl][5-(3-hydroxypyrrolidin-1-yl)-2-phenyl-2H-pyrazol-3-yl]methanone]: the IC50 on tubulin was 10000 nM; with HCT116 cells, 142 nM.
Turning to `COc1cc(OC)cc(N2CCN(C(=O)c3cc(-c4ccsc4)nn3-c3ccccc3)CC2)c1` [Example E85, [4-(3,5-Dimethoxyphenyl)piperazin-1-yl][2-phenyl-5-(thiophen-3-yl)-2H-pyrazol-3-yl]methanone], the figures for the IC50 on tubulin and with HCT116 cells were 1390 nM and 181 nM, respectively.
In the case of `Cc1cccc(N2CCN(C(=O)c3cc(C)nn3-c3cccc(C)c3)CC2)c1` [3/50], the IC50 on tubulin was 1500 nM; in the assay on HCT116 cells it was 6.1 nM.
For `Cc1cc(C(=O)N2CCN(c3ccc(F)cc3)CC2)n(-c2ccccc2)n1` [3/41], the IC50 at tubulin is 6500 nM; with HCT116 cells, 294 nM.
Take `Cc1cc(C(=O)N2CCN(c3cccc(Cl)c3)CC2)n(-c2ccccc2F)n1` [3/37]: the figures for the IC50 at tubulin and with HCT116 cells were 20000 nM and 1440 nM, respectively.
`Cc1cc(C(=O)N2CCN(c3cc(Cl)c(Br)cc3Br)CC2)n(-c2ccccc2)n1` [Example E79, [4-(2,4-Dibromo-5-chlorophenyl)piperazin-1-yl](5-methyl-2-phenyl-2H-pyrazol-3-yl)methanone]: the IC50 came out at 2200 nM on tubulin and 1040 nM with HCT116 cells.
Take `O=Cc1cc(C(=O)N2CCN(c3cccc(Cl)c3)CC2)n(-c2ccccc2)n1` [Example E70, 5-[4-(3-Chlorophenyl)piperazine-1-carbonyl]-1-phenyl-1H-pyrazole-3-carboxaldehyde]: the IC50 on tubulin amounted to 1300 nM; in the assay with HCT116 cells it was 10.8 nM.
Turning to `Cc1cc(C(=O)N2CCN(c3cccc4ccccc34)CC2)n(-c2ccc(F)cc2)n1` [3/59], the IC50 at tubulin turned out to be 5700 nM; in the assay with HCT116 cells, 4980 nM.
For `Cc1cc(C(=O)N2CCN(c3ccccc3)CC2)n(-c2ccccn2)n1` [Example E21, (5-Methyl-2-pyrid-2-yl-2H-pyrazol-3-yl)(4-phenylpiperazin-1-yl)methanone], the IC50 was determined as 9500 nM on tubulin and 198 nM in the assay with HCT116 cells.
On the same counts, the results for `Cc1cc(C(=O)N2CCN(c3cccc(C)c3C)CC2)n(-c2cccc(F)c2)n1` [3/94] are 800 nM and 32 nM.
Turning to `CSc1ccccc1N1CCN(C(=O)c2cc(C)nn2-c2cccc(Cl)c2)CC1` [3/26], the IC50 at tubulin is 1500 nM; with HCT116 cells it was 90 nM.
`Cc1cc(C(=O)N2CCN(c3cccc(F)c3)CC2)n(-c2ccccc2)n1` [3/152]: the IC50 on tubulin worked out at 800 nM; in the assay on HCT116 cells it was 6.3 nM.
On the same counts, the results for `Cc1cc(C(=O)N2CCN(c3cccc(Cl)c3Cl)CC2)n(-c2cccc(Cl)c2)n1` [3/125] are 12500 nM and 148 nM.
On the same counts, the results for `Cc1cc(C(=O)N2CCN(c3cccc(Cl)c3)CC2)n(-c2ccccn2)n1` [Example E22, [4-(3-Chlorophenyl)piperazin-1-yl](5-methyl-2-pyrid-2-yl-2H-pyrazol-3-yl)-methanone] are 1900 nM and 6.4 nM.
For `Cc1cccc(-n2nc(C)cc2C(=O)N2CCN(c3ccccc3C)CC2)c1` [3/48], in that order: 5000 nM and 118 nM.
As for `CCc1ccccc1N1CCN(C(=O)c2cc(C)nn2-c2cccc(Cl)c2)CC1` [3/68], the IC50 at tubulin turned out to be 1500 nM; in the assay on HCT116 cells it was 36 nM.
For `Cc1cccc(-n2nc(C)cc2C(=O)N2CCN(c3cc(Cl)ccc3C)CC2)c1` [3/53], in that order: 1200 nM and 52 nM.
On to `COc1ccc(-n2nc(C)cc2C(=O)N2CCN(c3cccc(Cl)c3Cl)CC2)cc1` [3/106], for which the IC50 at tubulin is 7000 nM; in the assay with HCT116 cells, 985 nM.
On the same counts, the results for `Cc1cc(C(=O)N2CCN(c3cccc(C(N)=O)c3)CC2)n(-c2cccnc2)n1` [Example E97, 3-[4-(5-Methyl-2-pyrid-3-yl-2H-pyrazole-3-carbonyl)piperazin-1-yl]benzamide] are 3600 nM and 81.1 nM.
On the same counts, the results for `Cc1cc(C(=O)N2CCN(c3ccc(Cl)c(Cl)c3)CC2)n(-c2cccc(F)c2)n1` [3/93] are 1700 nM and 32 nM.
In the case of `Cc1cccc(-n2nc(C)cc2C(=O)N2CCN(c3cccc(Cl)c3Cl)CC2)c1` [3/116], the IC50 at tubulin is 3000 nM; with HCT116 cells it was 141 nM.
For `Cc1cc(C(=O)N2CCN(c3cccc(Cl)n3)CC2)n(-c2ccccc2)n1` [Example E4, [4-(6-Chloropyrid-2-yl)piperazin-1-yl](5-methyl-2-phenyl-2H-pyrazol-3-yl)-methanone], in that order: 1300 nM and 4.7 nM.
On the same counts, the results for `Cc1cccc(-n2nc(C)cc2C(=O)N2CCN(c3ccc(F)cc3)CC2)c1` [3/47] are 8000 nM and 312 nM.
Take `Cc1cc(C(=O)N2CCN(c3cccc(NCc4ccccc4)c3)CC2)n(-c2ccccc2)n1` [Example E32, [4-(3-Phenylmethylaminophenyl)piperazin-1-yl](5-methyl-2-phenyl-2H-pyrazol-3-yl)methanone hydrochloride]: the IC50 came to 3100 nM on tubulin and 514 nM with HCT116 cells.
On the same counts, the results for `COc1ccc(Cl)cc1N1CCN(C(=O)c2cc(C)nn2-c2cccc(C)c2)CC1` [3/54] are 1000 nM and 117 nM.
For `Cc1cc(C(=O)N2CCN(c3cc(Cl)ccc3C)CC2)n(-c2ccccc2)n1` [3/33], in that order: 3000 nM and 170 nM.
As for `Cc1cc(C(=O)N2CCN(c3cncc(Cl)c3)CC2)n(-c2ccccc2)n1` [Example E33, [4-(5-Chloro-3-pyridyl)piperazin-1-yl](5-methyl-2-phenyl-2H-pyrazol-3-yl)methanone], the IC50 was 900 nM on tubulin and 8.9 nM in the assay on HCT116 cells.
On the same counts, the results for `Cc1cc(C(=O)N2CCN(c3cccc(Cl)c3)CC2)n(-c2c(F)c(F)cc(F)c2F)n1` [Example E43, [4-(3-Chlorophenyl)piperazin-1-yl][5-methyl-2-(2,3,5,6-tetrafluorophenyl)-2H-pyrazol-3-yl]methanone] are 2170 nM and 1460 nM.
On the same counts, the results for `Cc1cc(C(=O)N2CCN(c3ccsc3)CC2)n(-c2ccccc2)n1` [Example E104, (5-Methyl-2-phenyl-2H-pyrazol-3-yl)[4-(thiophen-3-yl)piperazin-1-yl]-methanone] are 8000 nM and 839 nM.
For `Cc1ccnc(N2CCN(C(=O)c3cc(C)nn3-c3ccccc3)CC2)c1` [Example E31, (5-Methyl-2-phenyl-2H-pyrazol-3-yl)[4-(4-methylpyrid-2-yl)piperazin-1-yl]methanone], in that order: 1500 nM and 20.8 nM.
For the compound `COc1cccc(N2CCN(C(=O)c3cc(C)nn3-c3ccc(Cl)cc3)CC2)c1` [3/73], the IC50 at tubulin is 2500 nM; in the assay on HCT116 cells, 111 nM.
On the same counts, the results for `COc1cc(OC)cc(N2CCN(C(=O)c3cc(N4CCCC4)nn3-c3ccccc3)CC2)c1` [Example E93, [4-(3,5-Dimethoxyphenyl)piperazin-1-yl][2-phenyl-5-(pyrrolidin-1-yl)-2H-pyrazol-3-yl]methanone] are 2020 nM and 6.3 nM.
